Reference: patent US11161855B2, “Tricyclic fused thiophene derivatives as JAK inhibitors” (Incyte Corporation, priority 2012, dated 2021)

tested on: human JAK1 (a.a. 837-1142); test: In vitro JAK kinase assay (HTRF), JAK1; assay type: biochemical; details: ratio of IC50s, 1 mM ATP
Method: Compounds herein were tested for inhibitory activity of JAK targets according to the following in vitro assay described in Park et al., Analytical Biochemistry 1999, 269, 94-104. The catalytic domains of human JAK1 (a.a. 837-1142), JAK2 (a.a. 828-1132) and JAK3 (a.a. 781-1124) were expressed using baculovirus in insect cells and purified. The catalytic activity of JAK1, JAK2 or JAK3 was assayed by measuring the phosphorylation of a biotinylated peptide. The phosphorylated peptide was detected by homogenous time resolved fluorescence (HTRF). IC50s of compounds were measured for each kinase in the 40 μL reactions that contain the enzyme, ATP and 500 nM peptide in 50 mM Tris (pH 7.8) buffer with 100 mM NaCl, 5 mM DTT, and 0.1 mg/mL (0.01%) BSA. For the 1 mM IC50 measurements, ATP concentration in the reactions was 1 mM. Reactions were carried out at room temperature for 1 hour and then stopped with 20 μL 45 mM EDTA, 300 nM SA-APC, 6 nM Eu-Py20 in assay buffer (Perkin Elmer, Boston, Mass.). Binding to the Europium labeled antibody took place for 40 minutes and HTRF signal was measured on a PHERA star plate reader (BMG, Cary, N.C.). The Example compounds were each tested in the Example A assay (see Table 1 for data for the compounds of the examples as tested by the assay of Example A at 1 mM ATP).

Compound	JAK2/JAK1
N#CC[C@H]1CC[C@H](n2c(C3CC3)nc3cnc4ccsc4c32)CC1 [Example 26, [trans-4-(2-Cyclopropyl-1H-imidazo[4,5-d]thieno[3,2-b]pyridin-1-yl)cyclohexyl]acetonitrile]	>10
CNS(=O)(=O)C[C@H]1CC[C@H](n2c([C@@H](C)O)nc3cnc4ccsc4c32)CC1 [Example 14, 1-(trans-4-{2-[(1R)-1-hydroxyethyl]-1H-imidazo[4,5-d]thieno[3,2-b]pyridin-1-yl}cyclohexyl)-N-methylmethanesulfonamide]	>5
C[C@@H](O)c1nc2cnc3ccsc3c2n1[C@H]1CCCOC1 [Example 1, (1R)-1-{1-[(3S)-Tetrahydro-2H-pyran-3-yl]-1H-imidazo[4,5-d]thieno[3,2-b]pyridin-2-yl}ethanol]	>3
CCCOC(=O)NC[C@H]1CC[C@H](n2c([C@@H](C)O)nc3cnc4ccsc4c32)CC1 [Example 83, Propyl [(trans-4-{2-[(1R)-1-hydroxyethyl]-1H-imidazo[4,5-d]thieno[3,2-b]pyridin-1-yl}cyclohexyl)methyl]carbamate]	>10
N#CCC1CCC(CO)(n2cnc3cnc4ccsc4c32)CC1 (single isomer, unassigned) [72 (second peak), [4-(Hydroxymethyl)-4-(1H-imidazo[4,5-d]thieno[3,2-b]pyridin-1-yl)cyclohexyl]acetonitrile]	>5
CCOC(=O)N1CCC[C@H](n2c([C@@H](C)O)nc3cnc4ccsc4c32)C1 [Example 50, Ethyl (3S)-3-{2-[(1R)-1-hydroxyethyl]-1H-imidazo[4,5-d]thieno[3,2-b]pyridin-1-yl}piperidine-1-carboxylate]	>10
CCNC(=O)C[C@H]1CC[C@H](n2c([C@@H](C)O)nc3cnc4ccsc4c32)CC1 [Example 31, N-Ethyl-2-(trans-4-{2-[(1R)-1-hydroxyethyl]-1H-imidazo[4,5-d]thieno[3,2-b]pyridin-1-yl}cyclohexyl)acetamide]	>10
C[C@@H](O)c1nc2cnc3ccsc3c2n1[C@H]1CC[C@H](CNC(=O)OC2CCOC2)CC1 (stereo partly drawn) [Example 85, Tetrahydrofuran-3-yl [(trans-4-{2-[(1R)-1-hydroxyethyl]-1H-imidazo[4,5-d]thieno[3,2-b]pyridin-1-yl}cyclohexyl)methyl]carbamate]	>10
C[C@@H](O)c1nc2cnc3ccsc3c2n1[C@H]1CCCN(C(=O)CCCC#N)C1 [Example 59, 5-((3S)-3-{2-[(1R)-1-Hydroxyethyl]-1H-imidazo[4,5-d]thieno[3,2-b]pyridin-1-yl}piperidin-1-yl)-5-oxopentanenitrile]	>10
CS(=O)(=O)NCc1nc2cnc3ccsc3c2n1[C@H]1CC2CCC1C2 (stereo partly drawn) [Example 22, N-((1-((2S)-Bicyclo[2.2.1]heptan-2-yl)-1H-imidazo[4,5-d]thieno[3,2-b]pyridin-2-yl)methyl)methanesulfonamide]	>4
C[C@@H](O)c1nc2cnc3ccsc3c2n1[C@H]1CCCN(C(=O)CCc2cn[nH]c2)C1 [Example 53, (1R)-1-(1-{(3S)-1-[3-(1H-Pyrazol-4-yl)propanoyl]piperidin-3-yl}-1H-imidazo[4,5-d]thieno[3,2-b]pyridin-2-yl)ethanol]	>10
C[C@@H](O)c1nc2cnc3ccsc3c2n1C1CCN(CC#N)CC1.O=C(O)C(F)(F)F [Example 61, (4-{2-[(1R)-1-Hydroxyethyl]-1H-imidazo[4,5-d]thieno[3,2-b]pyridin-1-yl}piperidin-1-yl)acetonitrile trifluoroacetate]	>10
C[C@@H](O)c1nc2cnc3ccsc3c2n1[C@H]1CC[C@H](NCC(F)(F)F)CC1 [Example 4, (1R)-1-(1-{trans-4-[(2,2,2-Trifluoroethyl)amino]cyclohexyl}-1H-imidazo[4,5-d]thieno[3,2-b]pyridin-2-yl)ethanol]	>10
CCOC(=O)NC[C@H]1CC[C@H](n2c([C@@H](C)O)nc3cnc4ccsc4c32)CC1 [Example 82, Ethyl [(trans-4-{2-[(1R)-1-hydroxyethyl]-1H-imidazo[4,5-d]thieno[3,2-b]pyridin-1-yl}cyclohexyl)methyl]carbamate]	>10
COC(=O)NC[C@H]1CC[C@H](n2c([C@@H](C)O)nc3cnc4ccsc4c32)CC1 [Example 78, Methyl [(trans-4-{2-[(1R)-1-hydroxyethyl]-1H-imidazo[4,5-d]thieno[3,2-b]pyridin-1-yl}cyclohexyl)methyl]carbamate]	>10
C[C@@H](O)c1nc2cnc3ccsc3c2n1[C@H]1CC[C@H](CO)CC1 [Example 11, (1R)-1-{1-[trans-4-(Hydroxymethyl)cyclohexyl]-1H-imidazo[4,5-d]thieno[3,2-b]pyridin-2-yl}ethanol]	>10
CC(=O)NC[C@H]1CC[C@H](n2c([C@@H](C)O)nc3cnc4ccsc4c32)CC1 [Example 79, N-[(trans-4-{2-[(1R)-1-Hydroxyethyl]-1H-imidazo[4,5-d]thieno[3,2-b]pyridin-1-yl}cyclohexyl)methyl]acetamide]	>10
C[C@@H](O)c1nc2cnc3ccsc3c2n1C1CCC(O)(CC#N)CC1 (single isomer, unassigned) [24 (first peak)]	>10

Second part, the compound after the results:

JAK2/JAK1	Compound
>10	N#CCc1nc2cnc3ccsc3c2n1[C@H]1CC[C@H](CC#N)OC1 [Example 73, {(2R,5S)-5-[2-(Cyanomethyl)-1H-imidazo[4,5-d]thieno[3,2-b]pyridin-1-yl]tetrahydro-2H-pyran-2-yl}acetonitrile]
>10	C[C@@H](O)c1nc2cnc3ccsc3c2n1[C@@H]1CC[C@@H](CC#N)OC1 [Example 44, ((2S,5R)-5-{2-[(1R)-1-Hydroxyethyl]-1H-imidazo[4,5-d]thieno[3,2-b]pyridin-1-yl}tetrahydro-2H-pyran-2-yl)acetonitrile]
>10	CC(F)c1nc2cnc3ccsc3c2n1[C@H]1CC[C@H](CC#N)OC1 (stereo partly drawn) [Example 71, {(2R,5S)-5-[2-(1-Fluoroethyl)-1H-imidazo[4,5-d]thieno[3,2-b]pyridin-1-yl]tetrahydro-2H-pyran-2-yl}acetonitrile]
>10	C[C@@H](O)c1nc2cnc3ccsc3c2n1[C@H]1CC[C@H](CC#N)[C@H](N)C1 [Example 67, ((1R,2R,4S)-2-Amino-4-{2-[(1R)-1-hydroxyethyl]-1H-imidazo[4,5-d]thieno[3,2-b]pyridin-1-yl}cyclohexyl)acetonitrile]
>10	N#CC[C@H]1CC[C@H](n2c(CO)nc3cnc4ccsc4c32)CC1 [Example 17, {trans-4-[2-(Hydroxymethyl)-1H-imidazo[4,5-d]thieno[3,2-b]pyridin-1-yl]cyclohexyl}acetonitrile]
>10	C[C@@H](O)c1nc2cnc3ccsc3c2n1[C@H]1CC[C@H](CC#N)CC1 [Example 2, (trans-4-{2-[(1R)-1-Hydroxyethyl]-1H-imidazo[4,5-d]thieno[3,2-b]pyridin-1-yl}cyclohexyl)acetonitrile]
>10	N#CC[C@H]1CC[C@H](n2c(CO)nc3cnc4ccsc4c32)CO1 [Example 91, {(2R,5S)-5-[2-(Hydroxymethyl)-1H-imidazo[4,5-d]thieno[3,2-b]pyridin-1-yl]tetrahydro-2H-pyran-2-yl}acetonitrile]
>10	CCc1nc2cnc3ccsc3c2n1[C@H]1CC[C@H](CC#N)OC1 [Example 39, [(2R,5S)-5-(2-Ethyl-1H-imidazo[4,5-d]thieno[3,2-b]pyridin-1-yl)tetrahydro-2H-pyran-2-yl]acetonitrile]
>10	C[C@@H](O)c1nc2cnc3ccsc3c2n1[C@H]1CCC(CO)OC1 (stereo partly drawn) [Example 19, (1R)-1-{1-[(3S)-6-(Hydroxymethyl)tetrahydro-2H-pyran-3-yl]-1H-imidazo[4,5-d]thieno[3,2-b]pyridin-2-yl}ethanol]
>10	C[C@@H](O)c1nc2cnc3ccsc3c2n1C1CCCC(CCC#N)C1 (stereo partly drawn) [Example 32, 3-(3-{2-[(1R)-1-Hydroxyethyl]-1H-imidazo[4,5-d]thieno[3,2-b]pyridin-1-yl}cyclohexyl)propanenitrile]
>10	CC(N)c1nc2cnc3ccsc3c2n1[C@H]1CC[C@H](CC#N)OC1.O=C(O)C(F)(F)F (stereo partly drawn) [Example 68, {(2R,5S)-5-[2-(1-Aminoethyl)-1H-imidazo[4,5-d]thieno[3,2-b]pyridin-1-yl]tetrahydro-2H-pyran-2-yl}acetonitrile Trifluoro Acetate]
>10	CC(=O)NC(C)c1nc2cnc3ccsc3c2n1[C@H]1CC[C@H](CC#N)OC1 (stereo partly drawn) [Example 69, N-(1-{1-[(3S,6R)-6-(Cyanomethyl)tetrahydro-2H-pyran-3-yl]-1H-imidazo[4,5-d]thieno[3,2-b]pyridin-2-yl}ethyl) acetamide]
>10	N#CCc1nc2cnc3ccsc3c2n1[C@H]1CC[C@H](CC#N)CC1 [Example 90, {1-[trans-4-(Cyanomethyl)cyclohexyl]-1H-imidazo[4,5-d]thieno[3,2-b]pyridin-2-yl}acetonitrile]
>7	Cc1nc2cnc3ccsc3c2n1[C@H]1CC[C@H](CC#N)CC1 [Example 48, [trans-4-(2-Methyl-1H-imidazo[4,5-d]thieno[3,2-b]pyridin-1-yl)cyclohexyl]acetonitrile]
